The record followed here is PubChem BioAssay AID1996.

A word on the solubility (kinetic): it is the concentration staying in solution when a stock, usually in DMSO, is diluted into the medium.

In brackets after ≈: the same amount, converted by molar mass.

The conditions of this data set: buffer; pH 7.4; 200.0 µM.
On to `COC(=O)c1ccsc1NC(=O)CS(=O)(=O)c1ccccc1`, for which the kinetic solubility was over 50.9 µg/mL. In turn, `CC1(C)Cc2c(C#N)c(NCCO)nc(-c3ccco3)c2CO1` showed a solubility (kinetic) of 37.4 µg/mL (≈ 119 µM). For the compound `CC(C)c1ccccc1NS(=O)(=O)c1cccs1`, the solubility (kinetic) is 28.2 µg/mL (≈ 100 µM). For the compound `O=C(NC1CN2CCC1CC2)c1cccc(Cl)c1` (stereo unspecified), the kinetic solubility was over 39.7 µg/mL. On to `C=CCn1c(COc2ccc(OC)cc2)nc2ccccc21`, for which the solubility (kinetic) worked out at 26.8 µg/mL (≈ 91 µM). As for `CCN1C(=O)CCC(C(=O)O)C1c1ccc(OC)cc1` (stereo unspecified), the kinetic solubility is over 41.6 µg/mL.

The compound `O=S(=O)(c1ccc(-c2ccon2)s1)N1CCCC1` came in with a kinetic solubility of 11.5 µg/mL (≈ 40.4 µM).

On to `Cn1c(=O)c2c(nc(NNC(=O)C(F)(F)F)n2C)n(C)c1=O`, for which the solubility (kinetic) is over 48 µg/mL. For the compound `CN1C(=O)C(C)(C)N(C(=O)c2cccc([N+](=O)[O-])c2)c2ccccc21`, the solubility (kinetic) was 29.5 µg/mL (≈ 86.9 µM). `CN(Cc1ccccc1F)C(=O)c1ccc(Oc2ccccc2)cc1` registered a kinetic solubility of 4.2 µg/mL (≈ 12.5 µM). Regarding `O=C(CCNS(=O)(=O)c1ccc(OC(F)(F)F)cc1)NC1CC1`, the solubility (kinetic) was over 52.8 µg/mL. `CC(=O)c1c(O)c2ccccc2n(C)c1=O` gave a solubility (kinetic) of 27.3 µg/mL (≈ 126 µM).

`Cc1ccc(-c2noc(CNC(=O)c3ccoc3C)n2)cc1` displayed a solubility (kinetic) of 32.6 µg/mL (≈ 110 µM). In turn, `Cc1ccc(SCC(=O)Nc2ccc(N3CCOCC3)cc2)cc1C` yielded a solubility (kinetic) of 12.3 µg/mL (≈ 34.5 µM). For `O=[N+]([O-])c1cccnc1Oc1ccc(F)cc1F` the value was 28.3 µg/mL (≈ 112 µM). For `CN1CCC(N(C)C(=O)NC2CCCCC2)CC1` the value was over 38 µg/mL. In turn, `CC(=O)c1c(C)[nH]c(C(=O)Nc2cccc3ccccc23)c1C` gave a solubility (kinetic) of 5.9 µg/mL (≈ 19.3 µM). For the compound `O=C(COc1cc(Cl)ccc1Cl)N1CCNC1=O`, the kinetic solubility is over 43.4 µg/mL. The same measure for `CSc1ccc(CNC(C)C(O)c2ccccc2)cc1.Cl` (stereo unspecified): over 48.6 µg/mL; for `Cc1cc(NC(=O)C2CC(=O)N(c3ccc(F)cc3)C2)no1` (stereo unspecified): over 45.5 µg/mL.

The compound `CC1CCCN(C(=O)c2ccc(-c3ccccc3Cl)o2)C1` (stereo unspecified) came in with a solubility (kinetic) of 10 µg/mL (≈ 32.9 µM). In the case of `O=C1CN(S(=O)(=O)c2cccc(Br)c2)CCN1`, the solubility (kinetic) is over 47.9 µg/mL.

Take `Cc1cc(SCc2cccc(C(F)(F)F)c2)nc(=O)[nH]1`: the kinetic solubility was determined as 26.9 µg/mL (≈ 89.6 µM).

With `Cc1cc(C)cc(NC(=O)c2ccc3c(c2)CCN3S(C)(=O)=O)c1`, the kinetic solubility was found to be 0.5 µg/mL (≈ 1.45 µM).

With `CC(C(=O)Nc1ccccc1)N1C(=O)c2ccccc2C1=O` (stereo unspecified), the solubility (kinetic) was over 44.1 µg/mL. `CCc1ccc2oc(-c3ccc(NC(C)=O)cc3)nc2c1`: the solubility (kinetic) was 0.8 µg/mL (≈ 2.85 µM). For `CCC1CCCCN1CC(=O)c1c(C)[nH]c2cc(C)ccc12` (stereo unspecified), the solubility (kinetic) was 33 µg/mL (≈ 111 µM).

For the compound `CCC(C)(C)NC(=O)COc1ccc(OCc2ccccc2)cc1`, the kinetic solubility was 9 µg/mL (≈ 27.5 µM).

The compound `S=C1NCN(Cc2ccco2)CN1c1ccccc1` displayed a solubility (kinetic) of over 41 µg/mL. `CCN(CC)C(=O)c1ccc(NC(=O)COc2ccccc2F)cc1` showed a solubility (kinetic) of over 51.7 µg/mL. `CC(C)(C)C(=O)Nc1cc2c3c(c1)CCC(=O)N3CCC2` had a solubility (kinetic) of 40 µg/mL (≈ 140 µM). With `Cc1c(C(=O)NC2CC2)oc2ccccc12`, the kinetic solubility was over 32.3 µg/mL. As to `COc1ccccc1CNC(=O)CN1C(=O)NC2(CCCCCC2)C1=O`, the kinetic solubility was over 53.9 µg/mL. `CC(C)C(NC(=O)c1ccc(Cl)cc1Cl)C(=O)N1CCC1` (stereo unspecified): the solubility (kinetic) is over 49.4 µg/mL. For the compound `O=C(CSc1nc2ccccc2o1)N1CCOCC1`, the solubility (kinetic) is over 41.7 µg/mL.

`COc1ccccc1Nc1ccc([N+](=O)[O-])cn1`: the solubility (kinetic) was 8.1 µg/mL (≈ 33 µM). For `CCN1CCN(c2ccc(NC(=O)c3ccc(Br)o3)cc2)CC1` the value was over 56.7 µg/mL; for `CCc1c(C#N)c(=O)[nH]c(=O)n1-c1ccccc1`, over 36.2 µg/mL. Compound `COc1cccc(NC(=O)CNC(=O)c2ccc(C)o2)c1` showed a kinetic solubility of over 43.2 µg/mL. As to `CC(C)CCNc1nc(N)c([N+](=O)[O-])c(N2CCCCCC2)n1`, the solubility (kinetic) came out at 0.5 µg/mL (≈ 1.55 µM). For `COc1ccccc1C(=O)Nc1c(-c2ccccc2)nc2ccccn12`, the kinetic solubility came to 10 µg/mL (≈ 29.1 µM). Compound `COc1cccc(CN(C)C(=O)c2csc3c2CCCC3)c1OC` displayed a solubility (kinetic) of 46.5 µg/mL (≈ 135 µM). As to `Cc1ccccc1CC(=O)Nc1cc(C(C)(C)C)on1`, the solubility (kinetic) turned out to be 36.9 µg/mL (≈ 135 µM). The compound `O=C1CCN(C(=S)NCCc2ccccc2)CC1` had a solubility (kinetic) of over 39.4 µg/mL.

In turn, `CCN(CC)CC(O)CN1c2ccccc2Sc2ccccc21` (stereo unspecified) gave a kinetic solubility of 44.4 µg/mL (≈ 135 µM). As for `Cc1ccc(OCC(=O)NCCNC(=O)c2ccco2)cc1C`, the kinetic solubility was over 47.5 µg/mL. Turning to `Cc1ccc2oc(/N=C(\N)NC(=O)C(C)(C)C)nc2c1`, the kinetic solubility worked out at 1.2 µg/mL (≈ 4.37 µM). For `CC1CN(S(=O)(=O)c2cc(C(=O)NCCCN3CCCC3=O)ccc2Cl)CC(C)O1` (stereo unspecified) the value was over 68.7 µg/mL; for `CCOc1ccc(C(C)=O)cc1COc1cccnc1[N+](=O)[O-]`, 6 µg/mL (≈ 19 µM). The same measure for `CCOc1cc(C(=O)Nc2ccc(S(=O)(=O)Nc3onc(C)c3C)cc2)cc(OCC)c1OCC`: over 75.5 µg/mL; for `NC(=O)c1cc2cc(Cc3ccccc3Cl)ccc2oc1=O`: 1.2 µg/mL (≈ 3.82 µM).
